Data as given in patent publication US9649292B2, “Method for treating prostate cancer and/or gastrointestinal cancer” (King Fahd University of Petroleum and Minerals, priority 2015, dated 2017).

What was measured:
PC3 cells [1] = assay: MTT assay for antiproliferative effects at fixed concentration; type: cell-based, human; conditions: PC3, 10 μM, 24 and 72 h
Method: (§1) An MTT assay was used to obtain the number of living cells in the sample. Human gastric cancer SGC7901 and prostate cancer PC3 cells were seeded on 96-well plates at a predetermined optimal cell density, i.e. ca. 6,000 cells/100 μL per well in 96-well plates, to ensure exponential growth in the duration of the assay. After 24 h pre-incubation, the growth medium was replaced with the experimental medium containing the appropriate drug, using one of gold(III) compounds 1, 2 and 3 or a control using water. Six duplicate wells were set up for each sample, and cells untreated with drug served as a control. In one set of culture plates, human gastric cancer SGC7901 and human prostate PC3 cells were treated with 10 μM compounds 1, 2 and 3 as the drug and the control (water) for 24, 48 and 72 h. In other sets, the compounds 1, 2 and 3 with different concentration, i.e. 10, 20 and 30 μM, were employed to determine the growth inhibitory effect for both PC3 and SGC7901cells separately. After incubation, 10 μL MTT (6 g/L, Sigma) was added to each well and the incubation was continued for 4 h at 37° C. After removal of the medium, MTT stabilization solution [dimethylsulfoxide (DMSO): ethanol (C2H5OH)=1:1 in v/v ratio] was added to each well, and shaken for 10 min until all crystals were dissolved. Then, the optical density was detected in a micro plate reader at 550 nm wavelength using an Enzyme-Linked Immuno-Sorbent Assay (ELISA) reader. After being treated with gold(III) complexes 1, 2 and 3, the cell viability was examined by MTT assay. Each assay was performed in triplicate. An MTT assay for the inhibitory effect has been used for compounds 1, 2 and 3 against PC3 and SGC7901 cells. These cells were treated with various concentrations of compounds 1, 2 and 3 for 24-72 h.

SGC7901 cells [2] = assay: as above; type: cell-based, human; conditions: SGC7901, 10 μM, 24 and 72 h
Method: as §1

[3] = Cyclic voltammetry in phosphate buffer; type: physicochemical; conditions: phosphate buffer pH 7.4, platinum electrode, 50 mV/s, 1.0 mM
Method: The electrochemical experiments were performed at room temperature using a potentiostat (SP-300, Bio-Logic Science Instruments) controlled by EC-Lab v10.34 software package. The electrochemical experiments were performed at room temperature. All the measurements were performed on solutions de-aerated by bubbling ultra-pure nitrogen for 15 min. The values of reduction potential here reported were measured against a saturated calomel electrode (SCE). The cyclic voltammetry of the compounds 1, 2 and 3 were measured at scan rate of 50 mV/s on a reference buffer (40 mM phosphate, 4 mM NaCl, pH 7.4) using platinum as working electrode and graphite as a counter electrode with a concentration of 1.0 mM at room temperature. Ferrocene was used as pseudo reference to calibrate the working electrode. The couple FeIII/II formal potential of ferrocene occur at E^o/=+0.44 V (vs SCE) in 0.1 MBu4NPF6 solution in CH3CN solvent which is similar to the report value under the same experimental condition [Hans J, Beckmann A, Kruger H-J (1999) Stabilization of Copper(III) ions with deprotonated hydroxyiminoamide ligands: syntheses, structures, and electronic properties of Copper(III) and Copper(III) complexes. Eur J Inorg Chem 1:163-172—incorporated herein by reference in its entirety]. Conversion to values vs ENH was obtained upon adding +0.24 V to the corresponding SCE values.
Gold(III) complexes 1, 2 and 3 show one irreversible reduction process in which the controlled potential coulometry involves three electrons per mole. The occurrence of Au(III)/Au(0) reduction is visually indicated by the appearance of a thin gold layer deposited on the platinum electrode surface after exhaustive electrolysis (Ew, −0.7 V).

PC3 cells [4] = assay: In vitro cytotoxic MTT assay, IC50; type: cell-based, human; conditions: 72 h exposure
Method: (§2) Human prostate PC3 and gastric SGC7901 cells were used throughout the examples of the present disclosure. Cells were cultured in Dulbecco's Modified Eagle Medium (DMEM) supplemented with 10% fetal calf serum (FCS), penicillin (100 kU L^−1) and streptomycin (0.1 g L^−1) at 37° C. in a 5% CO2-95% air atmosphere. Human gastric SGC7901 cells and prostate PC3 were incubated with these compounds at fixed concentrations or with water as a control to assess the inhibitory effect on cell growth. […] The cell survival versus drug concentration is plotted. Cytotoxicity was evaluated in vitro with reference to the IC50 value. The half maximal inhibitory concentration (IC50) is a measure of the effectiveness of a compound to inhibit biological or biochemical functions. According to the FDA, IC50 represents the concentration of a drug/compound/complex that is required for 50% inhibition in vitro. It is evaluated from the survival curves as the concentration needed for a 50% reduction of survival. IC50 values are expressed in μM. The IC50 values were calculated from dose-response curves obtained in replicate experiments.
(§3) The in vitro cytotoxic effect of mixed ligand gold(III) diamine complexes against androgen-resistant prostate PC3 and human gastric SGC7901 cancer cells were studied using MTT assay. […]

SGC7901 cells [5] = assay: In vitro cytotoxic MTT assay, IC50; type: cell-based, human; conditions: 72 h exposure
Method: as §2, §3

SGC7901 cells [6] = conditions: cited from earlier work; for cytotoxicity with respect to cisplatin: SGC7901 cells
[7] = Stability by 1H and 13C NMR in D2O and DMSO-d6/D2O; type: physicochemical; conditions: DMSO-d6/D2O (2/1 v/v), room temperature
Method: The stability of complexes 1, 2 and 3 were tested in water as well as in a mixture of solvents i.e. DMSO/water (2/1 in v/v ratio) by ^1H and ^13C NMR measurements. To investigate the structural stability of the complexes, NMR spectra of the complexes dissolved in D2O; and in mixed DMSO-d6/D2O (2/1 in v/v ratio) solution were obtained just after dissolution, 24 h and 1 week at room temperature in mixed DMSO-d6/D2O and at 37° C. in D2O. At least 20 mg of complexes 1, 2 and 3 in 1 mL D2O at 37° C.; and in 1 mL DMSO-d6/D2O (2/1:v/v) at room temperature were subjected to ^1H and ^13C NMR measurements and followed by their spectral analysis. Immediately after dissolution of complexes 1, 2 and 3 in the respective solvents and duplicate samples were then stored at room temperature and 37° C., respectively, and analyzed again after 24 h and 1 week in order to determine stability of complexes. Since the complexes were not used beyond a week after dissolution, so NMR measurements were limited to one week.
NMR spectra of the complexes were obtained upon immediate dissolution to serve as reference spectra and later at 24 h and after 7 days at 37° C. in D2O and at room temperature in mixed DMSO-d6/D2O in order to determine their stability. […] For example, FIGS. 12A-B and 13A-B illustrated, respectively, the ^1H and ^13C NMR profiles of the compound 1 at just after mixing and after 7 days.

PC3 cells [8] = conditions: cited from earlier work
[9] = test system: chronic lymphocytic leukemia cells (CLL); conditions: cited from earlier work

SMILES: NCCN.N[C@@H]1CCCC[C@H]1N.[Cl][Au]([Cl])[Cl] (racemic) [Complex 2, trans-(±)-1,2-diaminocyclohexane ethylenediamine gold(III) chloride]
- order of time dependent antiproliferative effect (PC3 cells [1]): complex 1>complex 3>complex 2
- order of time dependent antiproliferative effect (SGC7901 cells [2]): complex 1>complex 3>complex 2
- Ep, peak potential for reduction vs. ENH [3]: 0.46 V

SMILES: N.N.[Cl][Pt][Cl] [Cisplatin]
- IC50 (PC3 cells [4]): 1.1 µM
- IC50 (SGC7901 cells [5]): 7.3 µM
- intrinsic resistance of SGC7901 relative to PC3 cells (SGC7901 cells [6]; SGC7901 vs PC3): 7-8 fold

SMILES: NCCN.N[C@@H]1CCCC[C@@H]1N.[Cl][Au]([Cl])[Cl] [Complex 1, cis-1,2-diaminocyclohexane ethylenediamine gold(III) chloride]
- order of time dependent antiproliferative effect (PC3 cells [1]): complex 1>complex 3>complex 2
- order of time dependent antiproliferative effect (SGC7901 cells [2]): complex 1>complex 3>complex 2
- Ep, peak potential for reduction vs. ENH [3]: 0.49 V

SMILES: NCCN.N[C@H]1CCCC[C@@H]1N.[Cl][Au]([Cl])[Cl] [Complex 3, (S,S)-(+)-1,2-diaminocyclohexane ethylenediamine gold(III) chloride]
- order of time dependent antiproliferative effect (PC3 cells [1]): complex 1>complex 3>complex 2
- order of time dependent antiproliferative effect (SGC7901 cells [2]): complex 1>complex 3>complex 2
- dissociation of ethylenediamine (en) after 7 days [7]: 25%
- Ep, peak potential for reduction vs. ENH [3]: 0.51 V

SMILES: NCCN.[Au+3].[Cl-].[Cl-].[Cl-] [[(en)AuCl2]Cl]
- lower cytotoxicity as compared to cisplatin (PC3 cells [8]): 7-9 fold
- cytotoxicity with respect to cisplatin (SGC7901 cells [6]): almost two fold more cytotoxic
- cytotoxicity profile compared to cisplatin [9]: comparable to cisplatin

SMILES: NCCN.NCCN.[Au+3].[Cl-].[Cl-].[Cl-] [[Au(en)2]Cl3]
- cytotoxic effect compared to cisplatin (PC3 cells [8]): comparable to that of cisplatin
- cytotoxicity with respect to cisplatin (SGC7901 cells [6]): slightly lower cytotoxicity
